The results in this text go back to patent US5563155A, “Individual stereosiomers of 7-[3-(aminoalkyl)-1-pyrrolidinyl]-quinolones and naphthyridones as antibacterial agents” (Warner-Lambert Company, priority 1995, dated 1996).

For data set [1], the system named is Strep. faecalis MGH-2. Kind of data set: in vitro antibacterial activity, microtitration dilution (MIC), Strep. faecalis MGH-2. It is filed as cell-based. As to conditions: Enterococcus faecalis, MGH2, read-out: minimum inhibiting concentration (MIC). The method in brief:
(§1)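 MIC determined in vitro by microtitration broth dilution; values reported in μg/mL.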

The test system of data set [2] is Esch. coli Vogel. Kind of data set: in vitro antibacterial activity, microtitration dilution (MIC), Esch. coli Vogel. The class given is cell-based. As to conditions: Escherichia coli, read-out: minimum inhibiting concentration (MIC). The method, boiled down: as §1
Data set [3] has as its system Esch. coli Vogel. Kind of data set: median protective dose in mice given lethal systemic infections, Esch. coli Vogel. The class given is in vivo. As to conditions: Escherichia coli, single dose at time of challenge, read-out: median protective dose (PD50). On the procedure: (§2) The in vivo activity is obtained when the compounds are tested according to the procedure of Miller, et al (Proc. Soc. Exp. Biol. Med. 57, 261, 1944). The median protective dose (PD50) was determined in mice given lethal systemic infections. Single doses of compound were given at time of challenge.
(§3) By use of the above methods, the following minimum inhibiting concentration values (MICs in μg/mL), PD50 's in mg/kg, no effect phototoxicity dose in mg/kg and the cytotoxicity IC50 in μg/mL were obtained for representative enantiomers of the invention and compounds of the prior art as shown in the table.
(§4) The in vivo data as PD50 s are reported below the line of MICs for the same compound.

Data set [4] concerns Klebs. pneumoniae MGH-2. As to the kind of experiment: in vitro antibacterial activity, microtitration dilution (MIC), Klebs. pneumoniae MGH-2. The class given is cell-based. As to conditions: Klebsiella pneumoniae, MGH2, read-out: minimum inhibiting concentration (MIC). The method, boiled down:
as §1

A short description of data set [5]: in vivo. Details: species or system mice. As to conditions: mouse, po. On the procedure: The phototoxicity data is obtained using depilated mice. The compound was administered orally each day for four successive days, followed each day by 3 hours of UVA radiation. The mice were examined for any positive signs (redness, erythema) relative to control animals. The no effect dose and the 50% effect dose were determined. By use of the above methods, the following minimum inhibiting concentration values (MICs in μg/mL), PD50 's in mg/kg, no effect phototoxicity dose in mg/kg and the cytotoxicity IC50 in μg/mL were obtained for representative enantiomers of the invention and compounds of the prior art as shown in the table.

In data set [6] the test system is Ent. cloacae MA2646. Kind of data set: in vitro antibacterial activity, microtitration dilution (MIC), Ent. cloacae MA2646. The class given is cell-based. As to conditions: Enterobacter cloacae, read-out: minimum inhibiting concentration (MIC). The method, boiled down:
as §1

Data set [7] relates to Pseud. aeruginosa UI-18. Kind of data set: in vitro antibacterial activity, microtitration dilution (MIC), Pseud. aeruginosa UI-18. It is filed as cell-based. As to conditions: Pseudomonas aeruginosa, UI18, read-out: minimum inhibiting concentration (MIC). The method, boiled down:
as §1

Data set [8] can be described thus: cytotoxicity, hamster V-79 cells, colony reduction. The class given is cell-based. As to conditions: 3 hours treatment, colonies counted after 5 days, read-out: Cytotox (cytotoxicity IC50). Here is the method: The cytotoxicity data is obtained using hamster V-79 cells. The cells were suspended in tissue culture medium and grown overnight. Cells were treated with drug for 3 hours, washed free of drug and then replated, and the colonies counted after 5 days. The concentration of drug that reduced colones by 50% relative to control was recorded.
as §3

Data set [9] deals with Strep. pyogenes C-203. Kind of data set: median protective dose in mice given lethal systemic infections, Strep. pyogenes C-203. It is filed as in vivo. As to conditions: Streptococcus pyogenes, single dose at time of challenge, read-out: median protective dose (PD50). Here is the method: as §2, §3, §4
Data set [10] deals with Strep. pheumoniae SV-1. As to the kind of experiment: in vitro antibacterial activity, microtitration dilution (MIC), Strep. pneumoniae SV-1. The class given is cell-based. As to conditions: Streptococcus pneumoniae, SV1, read-out: minimum inhibiting concentration (MIC). The method, boiled down: as §1
The subject of data set [11] is Strep. pyogenes C-203. Kind of data set: in vitro antibacterial activity, microtitration dilution (MIC), Strep. pyogenes C-203. It is filed as cell-based. As to conditions: Streptococcus pyogenes, C203, read-out: minimum inhibiting concentration (MIC). The method in brief: as §1
For data set [12], the system named is Prot. rettgeri M 1771. As to the kind of experiment: in vitro antibacterial activity, microtitration dilution (MIC), Prot. rettgeri M 1771. It is filed as cell-based. As to conditions: Providencia rettgeri, M1771, read-out: minimum inhibiting concentration (MIC). The method in brief:
as §1

The test system of data set [13] is Staph. aureus H 228. Kind of data set: in vitro antibacterial activity, microtitration dilution (MIC), Staph. aureus H 228. The class given is cell-based. As to conditions: Staphylococcus aureus, H228, read-out: minimum inhibiting concentration (MIC). The method in brief: as §1
Data set [14] deals with Staph. aureus UC-76. As to the kind of experiment: in vitro antibacterial activity, microtitration dilution (MIC), Staph. aureus UC-76. The class given is cell-based. As to conditions: Staphylococcus aureus, UC76, read-out: minimum inhibiting concentration (MIC). The method, boiled down:
as §1

Data set [15] concerns Strep. pheumoniae SV-1. As to the kind of experiment: median protective dose in mice given lethal systemic infections, Strep. pneumoniae SV-1. It is filed as in vivo. As to conditions: Streptococcus pneumoniae, single dose at time of challenge, read-out: median protective dose (PD50). Here is the method: as §2, §3, §4

In brackets after ≈: the same amount, converted by molar mass. Like-named read-outs stand apart in the source and are kept apart here.

In the case of `CN[C@H](C)[C@@H]1CCN(c2c(F)c(N)c3c(=O)c(C(=O)O)cn(C4CC4)c3c2F)C1` [Example 41, 3R,1R-5-amino-1-cyclopropyl-6,8-difluoro-7-[3-(1-N-methylaminoethyl)-1-pyrrolidinyl]-1,4-dihydro-4-oxo-3-quinoline carboxylic acid], the MIC in [1] came out at 0.013 µg/mL (≈ 0.032 µM); in data set [2], 0.05 µg/mL (≈ 0.123 µM); in [4], 0.1 µg/mL (≈ 0.246 µM); in [6], 0.05 µg/mL (≈ 0.123 µM); in data set [7], 0.8 µg/mL (≈ 1.97 µM); in data set [10], 0.006 µg/mL (≈ 0.0148 µM). Also, the MIC in [11] was found to be 0.006 µg/mL (≈ 0.0148 µM); in data set [12] it was 0.2 µg/mL (≈ 0.492 µM); in data set [13], 0.006 µg/mL (≈ 0.0148 µM); in [14] it was 0.003 µg/mL (≈ 0.00738 µM). Besides, the ED50 in [3] (PO) was determined as 3 mg/kg; in data set [3] (SC), 2 mg/kg; in [9] (C203, PO) it was 2 mg/kg; in data set [9] (C203, SC), 0.7 mg/kg. Besides, in data set [5], the no observed adverse effect level (NOAEL) at 96 h was determined as 30 mg/kg. The CC50 at 3 h in data set [8] is 33 µg/mL (≈ 81.2 µM).

With `C[C@@H](N)[C@@H]1CCN(c2cc3c(cc2F)c(=O)c(C(=O)O)cn3C2CC2)C1` [Example 4, 3R,1R-1-cyclopropyl-6-fluoro-7-[3-(1-aminoethyl)-1-pyrrolidinyl]-1,4-dihydro-4-oxo-3-quinolinecarboxylic acid], the MIC in data set [1] stood at 0.1 µg/mL (≈ 0.278 µM); in [2] it was 0.1 µg/mL (≈ 0.278 µM); in data set [4], 0.4 µg/mL (≈ 1.11 µM); in [6], 0.2 µg/mL (≈ 0.556 µM); in data set [7] it was 1.6 µg/mL (≈ 4.45 µM); in [10] it was 0.025 µg/mL (≈ 0.0696 µM). Further, the MIC in data set [11] is 0.1 µg/mL (≈ 0.278 µM); in data set [12], 0.8 µg/mL (≈ 2.23 µM); in data set [13], 0.2 µg/mL (≈ 0.556 µM); in data set [14] it was 0.05 µg/mL (≈ 0.139 µM). Besides, the ED50 is 105 mg/kg in [15] (SV1, PO); 2 mg/kg in [15] (SV1, SC); 72 mg/kg in [3] (PO); 2 mg/kg in [3] (SC). Further, the CC50 at 3 h in data set [8] was found to be 140 µg/mL (≈ 390 µM).

As to `C[C@@H](N)[C@H]1CCN(c2cc3c(cc2F)c(=O)c(C(=O)O)cn3C2CC2)C1` [Example 1, 3S,1R-1-cyclopropyl-6-fluoro-7-[3-(1-aminoethyl)-1-pyrrolidinyl]-1,4-dihydro-4-oxo-3-quinolinecarboxylic acid], the MIC in data set [1] stood at 0.2 µg/mL (≈ 0.556 µM); in data set [2] it was 0.2 µg/mL (≈ 0.556 µM); in data set [4], 0.4 µg/mL (≈ 1.11 µM); in data set [6] it was 0.2 µg/mL (≈ 0.556 µM); in data set [7], 1.5 µg/mL (≈ 4.17 µM); in data set [10], 0.1 µg/mL (≈ 0.278 µM). For the same compound, the MIC came to 0.1 µg/mL (≈ 0.278 µM) in data set [11], 0.8 µg/mL (≈ 2.23 µM) in data set [12], 0.4 µg/mL (≈ 1.11 µM) in data set [13] and 0.05 µg/mL (≈ 0.139 µM) in [14]. For the same compound, the ED50 in data set [15] (SV1, PO) is above 100 mg/kg; in data set [15] (SV1, SC) it was 3 mg/kg; in [3] (PO) it was 35 mg/kg; in [3] (SC), 2 mg/kg. Also, in data set [8], the CC50 at 3 h came out at 160 µg/mL (≈ 445 µM).

Turning to `C[C@@H]([C@@H]1CCN(c2cc3c(cc2F)c(=O)c(C(=O)O)cn3C2CC2)C1)N(C)C` [Example 73], the MIC in data set [1] was found to be 0.1 µg/mL (≈ 0.258 µM); in data set [2], 0.1 µg/mL (≈ 0.258 µM); in data set [4], 0.2 µg/mL (≈ 0.516 µM); in data set [6], 0.2 µg/mL (≈ 0.516 µM); in [7], 1.6 µg/mL (≈ 4.13 µM); in data set [10], 0.05 µg/mL (≈ 0.129 µM). In addition, the MIC in [11] is 0.05 µg/mL (≈ 0.129 µM); in data set [12], 0.8 µg/mL (≈ 2.06 µM); in data set [13], 0.1 µg/mL (≈ 0.258 µM); in data set [14] it was 0.05 µg/mL (≈ 0.129 µM). Further, the ED50 in [3] (PO) is 5 mg/kg; in data set [3] (SC), 4 mg/kg; in [9] (C203, PO) it was 4 mg/kg; in data set [9] (C203, SC), 4 mg/kg. Moreover, the NOAEL at 96 h in [5] is below 30 mg/kg.
